“And” between values parts separate entries of the source, which are not always exact repeats. Equal entries are not always repeated. Where two headings read alike, the source gives them in different places.

For data set [1] the following is noted: cited from earlier work.
The target of a further data set is T1, P2Y12 receptor (Homo sapiens, UniProt Q9H244).
T1 construct: light transmittance through whole blood, to measure platelet agglutination; from tissue; host or cells: Platelets in citrated whole blood (arterial or venous) of patients
T1 sequence (Q9H244 whole entry): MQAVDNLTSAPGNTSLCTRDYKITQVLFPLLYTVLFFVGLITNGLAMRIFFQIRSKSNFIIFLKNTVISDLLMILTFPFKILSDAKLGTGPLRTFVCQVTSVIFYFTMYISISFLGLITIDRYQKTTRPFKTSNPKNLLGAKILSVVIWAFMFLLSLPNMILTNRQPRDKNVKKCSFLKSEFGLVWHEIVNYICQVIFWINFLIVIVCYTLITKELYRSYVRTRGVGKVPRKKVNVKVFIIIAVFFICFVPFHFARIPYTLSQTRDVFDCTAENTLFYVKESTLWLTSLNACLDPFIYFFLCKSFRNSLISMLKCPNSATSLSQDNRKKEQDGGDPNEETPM
Kind of data set: Platelet function by VerifyNow P2Y12 analyser in elective PCI patients given clopidogrel (PRINC trial). It is filed as in vivo. Particulars: for inhibition at 75 mg / inhibition at 150 mg: human. From the text:
The study protocol was approved by the Northern Regional Ethics Committee of New Zealand. Eligible patients were defined as all-corners for elective percutaneous coronary intervention who were on aspirin and naëve to clopidogrel. […] Patients were randomised into equal groups using a computerised random number generator. Block randomisation was not used, explaining the unbalanced grouping to treatment allocations. Clopidogrel was broken in half and repackaged into gelatine capsules packed with lactose powder to match placebo. Investigators and subjects were blinded to treatment allocation. A target of 120 patients was predefined for completion of the study. […] At discharge patients were randomized to receive either 75 mg or 150 mg once daily for one week and regular 75 mg once daily dosing thereafter. Adherence to the treatment regimen was tested by a phone interview and pill count. Arterial blood was sampled through 6Fr femoral sheaths and transferred immediately to 3.2% citrate 2 ml vacutainer tubes (Cat. #454321 Greiner Vacuette®, Greiner, Kremsmuenster, Austria), using a 20 G needle and syringe. After sheath removal blood was drawn by venepucture directly into vacutainer tubes. After collection the tubes were inverted four times for adequate mixing of the anticoagulant and left for ten minutes at 24 degrees before testing. Platelet function was tested at baseline, two, four and seven hours from first clopidogrel loading and at seven days. […] This device uses fibrinogen coated microbeads, an agonist of adenosine diphosphate (ADP) and light transmittance through whole blood, to measure platelet agglutination. The output of the device is measured as the proprietary platelet response unit (PRU). […] Percent inhibition is reported as the percentage change from baseline using a BASE unit. This BASE unit is derived from a second channel run parallel with the ADP channel using the agonist iso-TRAP (Thrombin Receptor Activating Peptide). From this point “percentage inhibition” will reflect this formula: % Inhibition=[(BASE−PRU)×100]/BASE. […] (2004) and Lev E I et al (2006)). The principal time point of interest for comparisons of genotype to drug response was specified as two hours after the first loading dose as at this point all patients had received only 600 mg. […] The effect of different dosages on response in genotype groups was assessed at four hours.

The test system of data set [2] is ADP-induced platelet aggregation or activation. The note with it: low inhibition of ADP-induced platelet aggregation or activation; cited from earlier work.
For data set [3] the following is noted: in vivo; cited from earlier work.

For orientation: inhibition means the change of the read-out against control, counted positive when it falls. A high value points to a response far below the control. Regarding `COC(=O)[C@H](c1ccccc1Cl)N1CCc2sccc2C1` [clopidogrel, (+)-(S)-methyl 2-(2-chlorophenyl)-2-(6,7-dihydrothieno[3,2-c]pyridin-5(4H)-yl)acetate], the Bioavailability entry in data set [1] (in vivo) is reported as “approximately 50%”. For the same compound, the Elimination half life in data set [1] (in vivo) was 7.2 to 7.6 h. Moreover, the “Time to peak effect after dosing” value in data set [1] (in vivo) was “six”. The “Share of a dose converted by esterases to inactive metabolites” value in data set [1] (inactivation pathway) is about 85%. The Platelet inhibition at P2Y12 receptor (75 mg maintenance dose, CYP2C19*2 or *4 carriers) is 24+/−18%; at P2Y12 receptor (600 mg loading dose, CYP2C19*2 or *4 carriers), 16+/−13%; at P2Y12 receptor (2 hours after 600 mg, CYP2C19*1*1 carriers), 26+/−20%; at P2Y12 receptor (2 hours after 600 mg, CYP2C19*2, *4 and *17 carriers) it was 13+/−20%; at P2Y12 receptor (four hours, 600 mg loading dose) it was 23.7%; on P2Y12 receptor (four hours, 600 mg loading dose, CYP2C19*1*1 carriers), 35+/−27%. Moreover, the Platelet inhibition on P2Y12 receptor (four hours, 1200 mg loading dose, CYP2C19*1*1 carriers) was 51+/−28%; on P2Y12 receptor (four hours, 1,200 mg split loading dose) it was 42%; on P2Y12 receptor (higher (150 mg) maintenance dose, CYP2C19*2 or *4 carriers), 49+/−31%; at P2Y12 receptor (higher (1200 mg) loading dose, CYP2C19*2 or *4 carriers), 36+/−24%; on P2Y12 receptor (seven days, 600 mg loading dose group), 35.7%; at P2Y12 receptor (seven days, 1,200 mg split loading dose group), 44.5%. For the same compound, the Platelet inhibition at P2Y12 receptor (seven hours, 600 mg loading dose) is 28.7%; on P2Y12 receptor (seven hours, 1,200 mg split loading dose) it was 48.9%; at P2Y12 receptor (seven hours, two individuals carrying both 2C19 and 2C9 poor responder genotypes), 8% and 11%; at P2Y12 receptor (two hours after 600 mg, two P2Y12 H2 haplotype CC homozygotes) it was under 2%. The “Non-responders (seven hour percent inhibition <10%)” value on P2Y12 receptor (600 mg (low dose) group, six out of 26) came to 26%; at P2Y12 receptor (1,200 mg (high dose) group, two out of 37), 5%. For the same compound, the inhibition at 75 mg turned out to be 40% against P2Y12 receptor (75 mg daily maintenance dose, CYP2C19*1*1 carriers) and 28.8% at P2Y12 receptor (one week, 75 mg once daily). Moreover, the inhibition at 150 mg was 51% on P2Y12 receptor (150 mg daily maintenance dose, CYP2C19*1*1 carriers) and 49.8% against P2Y12 receptor (one week, 150 mg once daily). In data set [2], the “Patients classified as poor responders or resistant” value is recorded as 20-40%.

Regarding `CC(=O)Oc1cc2c(s1)CCN(C(C(=O)C1CC1)c1ccccc1F)C2` (stereo not shown) [prasugrel, 5-[2-cyclopropyl-1-(2-fluorophenyl)-2-oxoethyl]-4,5,6,7-tetrahydrothieno[3,2-c]pyridin-2-yl acetate], the Elimination half life in data set [3] is 3.7 h.

The record behind these values is patent US8084210B2, “Methods for the assessment of drug response” (Theranostics Laboratory, priority 2008, dated 2011).
